Source: patent US9364514B2, “Anti-tumor adjuvant therapy” (Universite Pierre et Marie Curie (Paris 6), priority 2011, dated 2016)

Tests used:
[1] = system: mouse breast tumors from transgenic polyoma Middle-T mice (PyMT model); test: Therapeutic assay in nude mice bearing xenografted mouse breast tumors (PyMT model); type: in vivo; conditions: 5 mg/kg i.p. daily
Excerpt: (§1) The primary human xenografts were obtained as previously described (Marangoni et al., 2007). Mouse breast cancer tumors were obtained using the transgenic Polyoma Middle-T Mouse PyMT model. Spontaneously growing mammary tumors occurring in transgenic mice were xenografted into nude immunodeficient mice to allow pharmacological assessments, and maintained from nude mouse to nude mouse serially passages.
(§2) For therapeutic experimental assays, 5- to 8-week old Swiss nu/nu female mice received a subcutaneous graft of tumor fragments with a volume of approximately 15 mm3. Tumors developed at the graft site 2 to 6 weeks later. Mice bearing growing tumors with a volume of 40 to 200 mm^3 were individually identified and randomly assigned to the control or treatment groups (10 animals in each group) and treatments were started on day 1. Mice were weighed twice a week. Tumour-bearing mice were sacrificed when the tumor volume reached 2500 mm^3, defined as the ethical limit. Tumor volumes and antitumor activity were evaluated as previously reported (Nemati et al. 2009. Anti Cancer Drugs 20, pages 932-940).
The anti-tumoral effect of the mouse peptide DPT-C9 was analyzed in nude mice bearing xenograft mouse breast tumors obtained from the transgenic polyoma Middle-T mice. […]

[2] = system: breast cancer model BC52; test: Therapeutic assay in mice bearing primary human breast cancer xenograft BC52; type: in vivo, Swiss nu/nu female mice
Excerpt: as §1, §2
(§3) DPT-C9h peptide diluted in water/glucose (1 to 25 mg/kg) was given by intraperitoneally route 5 to 7 days per week, according to the models and the therapeutic schedules. Doxorubicin (Teva Pharmaceuticals) and cyclophosphamide (Baxter) were diluted in 0.9% NaCl and administered intraperitoneally at a dose of 2 mg/kg and 100 mg/kg at day 1, respectively.
(§4) The anti-tumoral effect of DPT-C9h was tested in mice bearing breast cancer model BC52 and BC146. DPT-C9h was intraperitoneally administered at 5 mg/kg once daily for 5 weeks.

[3] = system: BC146 human breast cancer model; test: Therapeutic assay in mice bearing primary human breast cancer xenograft BC146; type: in vivo, Swiss nu/nu female mice
Excerpt: as §1, §2, §3, §4
The inventors have further tested combined administration of DPT-C9h with doxorubicin and cyclophosphamid chemotherapy. The administration was either simultaneous or sequential: DPT-C9h was then administered at day 20, a stage corresponding to a chemotherapy-induced complete remission.

[4] = system: MDA MB231 breast cancer cell line; test: Detection of apoptosis by Annexin-V-FITC staining; type: cell-based
Protocol: (§5) MDA MB231 breast cancer cell line was cultured in DMEM medium supplemented with 10% of FCS.
Apoptotic cells were detected using Annexin-V (-FITC from BD biosciences) as described by the manufacturer. Briefly, the cells were washed in 1× binding buffer, centrifuged and then resuspended in 200 μl of 1× binding buffer containing Annexin V-FITC (0.1 μg/ml) and PI (0.5 μg/ml). After incubation at room temperature in the dark for 10 min, cells were analyzed by flow cytometry. Data acquired by FACSCalibur (BD biosciences) were analyzed with Cellquest Pro software.

[5] = system: MDA MB231 breast cancer cell line; test: Cytotoxicity assay (MTT); type: cell-based; conditions: 61 h
Protocol: as §5
The cytotoxicity of chemotherapy and the peptide was assessed by MTT. […] Cells were rinsed with culture medium and incubated with 10 μl MTT (5 mg/ml) in a final volume of 100 μl for 4 h at 37° C. The formation of blue formazan crystals was visualized by microscopy. After this period of incubation, 100 μl of 10% SDS in 10 mM HCl was added to each well and the plate incubated overnight. The absorbance was measured at 570 and 620 nm and the percentage of viable cells to untreated controls was estimated.

[6] = BC52 model, Treatment (Chemo.) = Ovariectomy, DPT-C9h 5 mg/kg i.p. once daily for 5 weeks
[7] = BC146 model, Chemo. = Doxorubicin + cyclophosphamid, DPT-C9h 5 mg/kg i.p.

Row | Substance | tumor growth inhibition [1] | tumor growth inhibition ([2]; BC52, 5 mg/kg i.p. once daily for 5 weeks, end of treatment) | OS: Overall survival [2, 6] | RTV: Relative tumor volume [2, 6] | tumor growth inhibition ([3]; BC146, 5 mg/kg i.p. once daily for 5 weeks, end of treatment) | OS: Overall survival [3, 7] | RTV: Relative tumor volume [3, 7] | tumor relapse ([3]; DPT-C9h combined with doxorubicin and cyclophosphamid, simultaneous or sequential (from day 20), versus chemotherapy alone) | CR: Complete remission ([3]; Treatment (Chemo.) = Doxorubicin 2 mg/kg + cyclophosphamid 100 mg/kg i.p. day 1, DPT-C9h simultaneous or from day 20) | apoptosis (annexin staining), combination effect ([4]; 5FU 10 μM 24 h, then 25 or 50 μM DPT-C9h for 24 further h) | apoptosis (annexin staining), combination effect ([4]; cisplatin 10 μM 24 h, then increasing doses of DPT-C9h for 24 further h) | apoptosis (annexin staining), combination effect ([4]; different doses of DPT-C9h + doxorubicin 0.25 μM, 24 h) | apoptosis (annexin staining), combination effect ([4]; docetaxel 0.5 μM + 10 and 25 μM DPT-C9h, 24 h) | cell survival (MTT) ([5]; different doses of 5FU + DPT-C9h 10 μM) | cell survival (MTT) ([5]; different doses of cisplatin + DPT-C9h 10 μM) | cell survival (MTT) ([5]; different doses of docetaxel + DPT-C9h 10 μM, versus docetaxel only)
1 | VKKKKIKREIKI-YIETLDDILEQWARSEDL (VKKKKIKREIKIYIETLDDILEQWARSEDL; cell penetrating peptide) [DPT-C9] | significant tumor growth inhibition |  |  |  |  |  |  |  |  |  |  |  |  |  |  | 
2 | VKKKKIKREIKI-YVETLDDIFEQWAHSEDL (VKKKKIKREIKIYVETLDDIFEQWAHSEDL; cell penetrating peptide) [DPT-C9h] |  | significant tumor growth inhibition | 33% | 0.70 | significant tumor growth inhibition | 27% | 20.2 | delayed tumor relapse better than chemotherapy alone | 0% | synergistic apoptotic effect | synergistic apoptotic effect | synergistic effect on apoptosis | synergistic apoptotic effect | low cell survival | low level of cell survival | low survival
